Laboratory results reported in patent US20240059693A1, “FUSED BICYCLIC PYRAZOLE DERIVATIVES AND METHODS OF USE THEREOF FOR THE TREATMENT OF HERPESVIRUSES” (Merck Sharp & Dohme LLC, priority 2020, published 2024).
Like-named read-outs stand apart in the source and are kept apart here.

How the values were obtained:
[1] = biological target: T1, Human cytomegalovirus DNA polymerase (Human cytomegalovirus, UniProt P08546); experiment: HCMV polymerase assay (AlphaLISA); assay type: biochemical; conditions: HCMV DNA polymerase 0.2 nM, 60 minutes at 37° C.; read-out: CMV (IC50)
T1 construct: made in house; host or cells: SF21 insect cells (baculovirus vector)
T1 sequence (P08546 whole entry): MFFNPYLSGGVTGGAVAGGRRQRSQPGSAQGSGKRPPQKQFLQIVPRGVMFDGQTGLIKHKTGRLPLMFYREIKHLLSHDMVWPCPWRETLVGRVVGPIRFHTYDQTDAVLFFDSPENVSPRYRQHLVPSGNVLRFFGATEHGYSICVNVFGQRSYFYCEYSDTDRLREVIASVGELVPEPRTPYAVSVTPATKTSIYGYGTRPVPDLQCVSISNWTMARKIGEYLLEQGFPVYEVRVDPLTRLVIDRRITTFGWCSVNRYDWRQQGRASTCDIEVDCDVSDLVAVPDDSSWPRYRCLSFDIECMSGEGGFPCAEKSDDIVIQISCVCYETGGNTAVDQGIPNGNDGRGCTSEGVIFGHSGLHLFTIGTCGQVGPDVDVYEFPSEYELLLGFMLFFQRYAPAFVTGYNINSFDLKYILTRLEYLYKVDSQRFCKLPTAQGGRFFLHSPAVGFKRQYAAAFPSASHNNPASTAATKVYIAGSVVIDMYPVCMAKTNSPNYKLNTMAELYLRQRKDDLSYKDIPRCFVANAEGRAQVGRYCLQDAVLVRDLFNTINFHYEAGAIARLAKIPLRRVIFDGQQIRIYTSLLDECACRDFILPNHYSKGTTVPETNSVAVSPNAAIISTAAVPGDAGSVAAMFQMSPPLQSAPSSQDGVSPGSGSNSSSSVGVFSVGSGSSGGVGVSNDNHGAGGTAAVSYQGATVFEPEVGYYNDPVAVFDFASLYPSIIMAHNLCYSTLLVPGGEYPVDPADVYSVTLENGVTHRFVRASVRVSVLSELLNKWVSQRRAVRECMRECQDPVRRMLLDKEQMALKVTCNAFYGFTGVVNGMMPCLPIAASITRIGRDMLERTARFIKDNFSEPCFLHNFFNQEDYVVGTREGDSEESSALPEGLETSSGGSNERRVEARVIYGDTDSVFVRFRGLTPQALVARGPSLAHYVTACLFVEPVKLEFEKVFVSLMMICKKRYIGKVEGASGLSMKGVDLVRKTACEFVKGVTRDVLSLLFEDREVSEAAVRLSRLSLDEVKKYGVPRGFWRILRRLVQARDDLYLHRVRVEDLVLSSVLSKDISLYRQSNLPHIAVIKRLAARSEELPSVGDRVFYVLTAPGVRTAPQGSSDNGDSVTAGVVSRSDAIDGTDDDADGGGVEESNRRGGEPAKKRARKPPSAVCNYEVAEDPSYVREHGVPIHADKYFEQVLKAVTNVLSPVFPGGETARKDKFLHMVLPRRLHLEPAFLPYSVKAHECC
Experimental: Human cytomegalovirus and varicella zoster virus DNA polymerases were expressed via baculovirus vector in SF21 cells and purified. Heterodimeric nucleic acid substrate used in the herpesvirus polymerase reactions was generated by annealing a 59-mer template to a 17-mer digoxigenin-labeled primer. Polymerase (HCMV final concentration of 0.2 nM; VZV final concentration of 0.4 nM) was combined with an inhibitor compound or DMSO in assay buffer (10 mM HEPES, pH 7.5, 25 mM KCl, 25 mM NaCl, 5 mM MgCl2, 5% glycerol, 0.67 mg/ml bovine serum albuminutes, and 1 mM tris(2-carboxyethyl)phosphine), and this mixture was pre-incubated for 30 minutes at room temperature in 384-well microtiter plates. The polymerization reaction was initiated by the addition of template/primer substrate (final concentration: 1.6 nM), and dNTPs (final concentration: 24 nM dCTP, 24 nMdGTP, 16 nM dATP, 16 nM dTTP, and 0.8 nM biotin-dUTP). After 60 minutes incubation at 37° C., reactions were terminated with quench buffer (25 mM HEPES pH 7.5, 100 mM NaCl, 0.25% Tween-20, 12 mM EDTA, and 1 mg/ml bovine serum albumin). Incorporation of biotinylated UTP was detected with 2.5-ug/ml anti-DIG AlphaLISA acceptor beads and 5-10 ug/ml streptavidin AlphaLISA donor beads (Perkin Elmer). Compound effects were normalized to the window defined by the controls (DMSO only and pre-quenched wells) and were fit using a 4-parameter algorithm to report an IC50.

HCMV Strain AD169 = experiment: Viral qPCR assay, HCMV in MRC-5 cells; assay type: cell-based, Human cytomegalovirus; conditions: read-out: CMV MRC5 Cell (EC50)
Experimental: (§1) MRCS cells, Vero cells, and MeWo cells were obtained from ATCC and were maintained at 37° C./5% CO2/90% relative humidity in Minimal Essential Medium with 10% fetal bovine serum, […] L-glutamine, 100 units/ml penicillin and 100 ug/ml streptomycin. Assay plates were prepared by dispensing compounds dissolved in DMSO into wells of 384 well collagen-coated plates using an ECHO acoustic dispenser. Each compound was tested in a 10-point, serial 3-fold dilution. Controls included uninfected cells and infected cells treated only with DMSO. Assays were initiated by mixing selected cells, in suspension, with virus, and dispensing 50 μl/well infected cells to pre-plated compounds. Plates were incubated at 37° C./5% CO2/90% relative humidity for ˜72 hrs to permit genomic replication, and infected cells were lysed by the addition of an equal volume of lysis buffer (10 mM Tris-HCl, pH8, 50 mM KCl, 2 mM MgCl2, 0.45% NP-40, 0.45% Tween-20, and 100 μg/ml proteinase K). An aliquot of the lysate was transferred to a 384-well PCR plate and incubated at 56° C. for 1 hour and then at 95° C. for 10 min. Levels of a viral gene and of the cellular control, PPIA (Thermo Fisher Assay ID=Hs04194521_s1), were measured in separate 10 μL qPCR assays using TaqMan® Gene Expression Master Mix (Applied Biosystems), and an 7900HT Fast Real-Time PCR System with 384-Well Block Module. 7-point, serial 10-fold dilutions of a plasmid standard were run on each plate to generate a standard curve, and genome copies numbers were calculated by plotting experimental Ct onto linear regression of the standard curve. Viral genome copy numbers were normalized by cellular control copy number, and compound effects were normalized to the window defined by the controls. Calculated % effects were fit using a 4-parameter algorithm, and EC50 was reported.
as §1, with “gene” for “gene and of the cellular control, PPIA (Thermo Fisher Assay ID=Hs04194521_s1),”, “in” for “in separate”, “Compound effects on viral” for “Viral”, “number” for “numbers were normalized by cellular control copy number, and compound effects”
HCMV: Strain AD169 Street was assayed in MRC-5 cells and was used at 0.05-0.1 pfu/cell. The assays were performed in either growth media or in the same media with 50% fetal bovine serum. Primer-probe set was Thermo Fisher Assay ID=AIFATFK.

VZV = experiment: Viral qPCR assay, VZV in MRC5 cells; assay type: cell-based, varicella zoster virus; conditions: read-out: VZV MRC5 Cell (IC50)
Experimental: as §1
as §1, with “gene” for “gene and of the cellular control, PPIA (Thermo Fisher Assay ID=Hs04194521_s1),”, “in” for “in separate”, “Compound effects on viral” for “Viral”, “number” for “numbers were normalized by cellular control copy number, and compound effects”
(§2) VZV: Strain Street was maintained as an infected cell stock in MRC-5 cells. It was assayed in MeWo or MRCS cells and was used at 0.04-0.1 pfu/cell. The assays were performed in growth medium. Primer-probe set was Thermo Fisher Assay ID=AIPAEXQ. HSV-1: Strain F Street was assayed in Vero or MRCS cells and was used at 0.0005-0.004 pfu/cell in growth medium. Primer-probe set was Thermo Fisher Assay ID=AIBJZIB

HSV-1 Strain F = experiment: Viral qPCR assay, HSV-1 in MRC5 cells; assay type: cell-based, Herpes Simplex Virus type 1; conditions: read-out: HSV1 MRC5 Cell (EC50)
Experimental: as §1
as §1, with “gene” for “gene and of the cellular control, PPIA (Thermo Fisher Assay ID=Hs04194521_s1),”, “in” for “in separate”, “Compound effects on viral” for “Viral”, “number” for “numbers were normalized by cellular control copy number, and compound effects”
as §2

HSV2 = experiment: Viral qPCR assay, HSV2 in MRC5 cells; assay type: cell-based, Herpes Simplex Virus type 2; conditions: read-out: HSV2 MRC5 Cell (EC50)
Experimental: as §1
as §1, with “gene” for “gene and of the cellular control, PPIA (Thermo Fisher Assay ID=Hs04194521_s1),”, “in” for “in separate”, “Compound effects on viral” for “Viral”, “number” for “numbers were normalized by cellular control copy number, and compound effects”

[2] = Human alphaherpesvirus 3, MRC5, 72 h
[3] = Human alphaherpesvirus 1, MRC5, 72 h
[4] = Human alphaherpesvirus 2, MRC5, 72 h
[5] = Human betaherpesvirus 5, AD169, MRC5, 72 h

| Structure (SMILES) | IC50 [1] [µM] | EC50 (HCMV Strain AD169; MRC5 cells, ~72 hrs) [µM] | IC50 (VZV; ~72 hrs) [µM] | EC50 (HSV-1 Strain F; ~72 hrs) [µM] | EC50 (HSV2; ~72 hrs) [µM] | IC50 (VZV; [2]) [µM] | EC50 (HSV-1 Strain F; [3]) [µM] | EC50 (HSV2; [4]) [µM] | EC50 (HCMV Strain AD169; [5]) [µM] |
| --- | --- | --- | --- | --- | --- | --- | --- | --- | --- |
| CC([C@@H]1CCC(=O)N1)N1Cc2c(C(=O)NCc3ccc(Cl)cc3)nn(-c3nccs3)c2C1 (single isomer, unassigned) [Compound 5] | 0.0053 | 0.392 | 0.405 | 0.248 | 0.248 | – | – | – | – |
| O=C1CC[C@H](CN2Cc3c(C(=O)NCc4ccc(Cl)cc4)nn(C4CCOC4)c3C2)N1 (single isomer, unassigned) [Compound 33] | 0.0525 | 0.628 | 1.96 | 1.56 | 1.41 | – | – | – | – |
| O=C1CC[C@@H](CN2Cc3c(C(=O)NCc4ccc(Cl)cc4)nn(C4CCOC4)c3C2)N1 (single isomer, unassigned) [Compound 43] | 0.0582 | 3.29 | – | – | – | 2.64 | 3.55 | 3.49 | – |
| CCC1c2c(c(C(=O)NCc3ccc(Cl)cc3)nn2C)CN1C[C@@H]1CCC(=O)N1 (single isomer, unassigned) [Compound 103] | 0.0174 | 0.157 | 0.104 | 0.172 | 0.063 | – | – | – | – |
| CC(=O)OCC1c2c(c(C(=O)NCc3ccc(Cl)cc3)nn2C)CN1CC1CCC(=O)N1 (single isomer, unassigned) [Compound 120] | 0.121 | 0.642 | 1.78 | 2.74 | 2.02 | – | – | – | – |
| O=C1CC[C@H](CN2Cc3c(C(=O)NCc4ccc(Cl)cc4)nn(-c4nccs4)c3C2)N1 [Compound 7] | 0.00982 | – | – | – | – | 0.191 | 0.118 | 0.0866 | 0.142 |
| Cc1cnc(-n2nc(C(=O)NCc3ccc(Cl)cc3)c3c2CN(C[C@H]2CCC(=O)N2)C3)s1 [Compound 11] | 0.0227 | – | – | – | – | 0.17 | 0.172 | 0.0507 | 0.263 |
| Cn1nc(C(=O)NCc2ccc(Cl)cc2)c2c1CN(CC1CCC(=O)N1)C2 (centres unmarked) [Compound 88] | 13.3 | 33 | – | – | – | – | – | – | – |
| CCC(C1CCC(=O)N1)N1Cc2c(C(=O)NCc3ccc(Cl)cc3)nn(C)c2C1 (centres unmarked) [Compound 92] | 1.18 | 65.9 | – | – | – | – | – | – | – |
| C=CC[C@]1(CN2Cc3c(C(=O)NCc4ccc(Cl)cc4)nn(C)c3C2)CCC(=O)N1 [Compound 96] | 0.144 | – | – | – | – | – | – | – | 1.12 |
| O=C(NCc1ccc(Cl)cc1)c1nn(C(F)F)c2c1CN(CC13CC(C1)C(=O)N3)C2 [Compound 98] | 0.534 | – | – | – | – | – | – | – | 1.4 |
| CC(C)[C@@H]1c2c(c(C(=O)NCc3ccc(Cl)cc3)nn2C)CN1C[C@@H]1CCC(=O)N1 [Compound 114] | 0.0776 | – | – | – | – | – | – | – | 1.1 |

Second part, led by results:

| IC50 [1] [µM] | Structure (SMILES) | EC50 (HCMV Strain AD169; MRC5 cells, ~72 hrs) [µM] | IC50 (VZV; ~72 hrs) [µM] | EC50 (HSV-1 Strain F; ~72 hrs) [µM] | EC50 (HSV2; ~72 hrs) [µM] | IC50 (VZV; [2]) [µM] | EC50 (HSV-1 Strain F; [3]) [µM] | EC50 (HSV2; [4]) [µM] | EC50 (HCMV Strain AD169; [5]) [µM] |
| --- | --- | --- | --- | --- | --- | --- | --- | --- | --- |
| 0.235 | CC(C1CCC(=O)N1)N1Cc2c(C(=O)NCc3ccc(Cl)cc3)nn(C)c2C1 (single isomer, unassigned) [Compound 1] | 4.48 | 7.53 | 9.98 | 6.74 | – | – | – | – |
| 0.00981 | CC(C1CCC(=O)N1)N1Cc2c(C(=O)NCc3ccc(Cl)cc3)nn(C)c2C1 (single isomer, unassigned) [Compound 2] | 0.176 | 0.182 | 0.271 | 0.119 | – | – | – | – |
| 0.0516 | O=C1CC[C@H](CN2Cc3c(C(=O)NCc4ccc(Cl)cc4)nn(C4CCOC4)c3C2)N1 (single isomer, unassigned) [Compound 34] | 1.8 | 2.05 | 0.79 | 1.85 | – | – | – | – |
| 0.0338 | O=C1CC[C@@H](CN2Cc3c(C(=O)NCc4ccc(Cl)cc4)nn(C4CCOC4)c3C2)N1 (single isomer, unassigned) [Compound 44] | 1.1 | 2.37 | 2.5 | 2.95 | – | – | – | – |
| 0.0112 | CC(C1CC(F)C(=O)N1)N1Cc2c(C(=O)NCc3ccc(Cl)cc3)nn(C)c2C1 (single isomer, unassigned) [Compound 73] | – | – | – | – | 0.534 | 0.614 | 0.464 | 0.134 |
| 0.023 | CCC1c2c(c(C(=O)NCc3ccc(Cl)cc3)nn2C)CN1C[C@H]1CCC(=O)N1 (single isomer, unassigned) [Compound 105] | 0.479 | 0.289 | 0.335 | 0.274 | – | – | – | – |
| 0.0185 | O=C1CC[C@H](CN2Cc3c(C(=O)NCc4ccc(Cl)cc4)nn(-c4ncc5cnccn45)c3C2)N1 [Compound 8] | 0.678 | 0.479 | 0.299 | 0.226 | – | – | – | – |
| 0.0209 | Cc1nc(-n2nc(C(=O)NCc3ccc(Cl)cc3)c3c2CN(C[C@H]2CCC(=O)N2)C3)sc1C [Compound 10] | – | – | – | – | 0.172 | 0.189 | 0.124 | 0.434 |
| 0.0762 | CC([C@@H]1CCC(=O)N1)N1Cc2c(C(=O)NCc3ccc(Cl)cc3)nn(C(F)F)c2C1 (some centres unmarked) [Compound 71] | – | 1.21 | 2.08 | 1.07 | – | – | – | – |
| 8.61 | CCC(C1CCC(=O)N1)N1Cc2c(C(=O)NCc3ccc(Cl)cc3)nn(C)c2C1 (centres unmarked) [Compound 91] | 99 | – | – | – | – | – | – | – |
| 2.9 | CC1c2c(c(C(=O)NCc3ccc(Cl)cc3)nn2C)CN1C(C)C1CCC(=O)N1 (centres unmarked) [Compound 110] | 22.2 | – | – | – | – | – | – | – |
| 0.188 | CC(C)[C@H]1c2c(c(C(=O)NCc3ccc(Cl)cc3)nn2C)CN1C[C@H]1CCC(=O)N1 [Compound 113] | 4.83 | – | – | – | – | – | – | – |
